For eight molecules, Ki and IC50 results are on record in PMC9126592, “sp^2-Iminosugars targeting human lysosomal β-hexosaminidase as pharmacological chaperone candidates for late-onset Tay-Sachs disease” (Journal of Enzyme Inhibition and Medicinal Chemistry, 2022).

Holding throughout (assay type): biochemical
Experiment [1] concerns the target β-hexosaminidase from human placenta. Nature of the experiment: Commercial enzyme inhibition assay, β-hexosaminidase from human placenta. Particulars: mean ± SD (n = 3); competitive. The procedure: (§1) Inhibition constant (Ki) values were determined by spectrophotometrically measuring the residual hydrolytic activities of the glycosidases against the respective o- (for β-galactosidase from E. coli) or p-nitrophenyl α- or β-D-glycopyranoside (for other glycosidases) in the presence of the iminosugars. Each assay was performed in phosphate buffer or phosphate-citrate buffer (for α- or β-mannosidase, amyloglucosidase or β-N-acetylglucosaminidase) at the optimal pH for the enzymes. The reactions were initiated by addition of the enzyme to a solution of the substrate in the absence or presence of various inhibitor concentrations. The mixture was incubated for 10–30 min at 37 °C or 55 °C (for amyloglucosidase) and the reaction was quenched by addition of 1 m Na2CO3. Reaction times were appropriate to obtain 10%–20% conversion of the substrate in order to achieve linear rates. The absorbance of the resulting mixture was determined at 405 nm. Approximate values of Ki were determined using a fixed concentration of substrate (around the KM value for the different glycosidases) and various inhibitor concentrations. Full Ki determinations and the enzyme inhibition mode were determined from the slope of Lineweaver-Burk plots and double reciprocal analysis.

In experiment [2] the target is Total Hex (human lysosomal β-hexosaminidase). Nature of the experiment: Inhibition of total β-hexosaminidase in human fibroblast lysates. As to conditions: mean of three determinations. The procedure: (§2) For determination of lysosomal enzyme activities in cell lysates, cells were scraped into ice-cold H2O (10^6 cells mL^−1) and lysed by sonication. Insoluble materials were removed by centrifugation at 15,000 rpm for 5 min and protein concentrations were determined with Protein Assay Rapid Kit (WAKO, Tokyo, Japan). 10 µL of the lysates in 0.1% Triton X-100 in distilled water were incubated at 37 °C with 20 µL of the substrate solution in 0.1 M citrate buffer, pH 4.5, in absence or presence of increasing concentrations of the chaperones. The substrates were 4-methylumbelliferone (4-MU)-conjugated β-D-glucopyranoside (for GCase), α-D-glucopyranoside (for α-glucosidase), α-D-galactopyranoside (for α-Galase), β-D-galactopyranoside (for β-galactosidase), N-acetyl-β-D-glucosaminide (for total β-hexosaminidase), N-acetyl-β-D-glucosaminide-6-sulfate sodum salt (for HexA) and α-N-acetyl-D-galactosaminide for α-N-acetylgalactosaminidase. HexA activities in cell lysates were also determined in 0.1 M citrate buffer at pH 5 or pH 7, supplemented with sodium taurocholate (0.8% w/v). The reactions were terminated by adding 0.2 ml of 0.2 M glycine sodium hydroxide buffer (pH 10.7). The liberated 4-methylumbelliferone was measured in the black-well plate with a Perkin Elmer Luminescence Spectrometer (excitation wavelength: 340 nm; emission: 460 nm). One unit of enzyme activity was defined as nmol of 4-methylumbelliferone released per hour and normalised for the amount of protein contained in the lysates.

The target of experiment [3] is T1, HexA (human lysosomal β-hexosaminidase A) (Homo sapiens, UniProt P06865).
T1 construct: HexA activities in cell lysates were also determined in 0.1 M citrate buffer at pH 5 or pH 7; endogenous in cells; host or cells: human fibroblasts (lysate)
T1 sequence (P06865 89-529): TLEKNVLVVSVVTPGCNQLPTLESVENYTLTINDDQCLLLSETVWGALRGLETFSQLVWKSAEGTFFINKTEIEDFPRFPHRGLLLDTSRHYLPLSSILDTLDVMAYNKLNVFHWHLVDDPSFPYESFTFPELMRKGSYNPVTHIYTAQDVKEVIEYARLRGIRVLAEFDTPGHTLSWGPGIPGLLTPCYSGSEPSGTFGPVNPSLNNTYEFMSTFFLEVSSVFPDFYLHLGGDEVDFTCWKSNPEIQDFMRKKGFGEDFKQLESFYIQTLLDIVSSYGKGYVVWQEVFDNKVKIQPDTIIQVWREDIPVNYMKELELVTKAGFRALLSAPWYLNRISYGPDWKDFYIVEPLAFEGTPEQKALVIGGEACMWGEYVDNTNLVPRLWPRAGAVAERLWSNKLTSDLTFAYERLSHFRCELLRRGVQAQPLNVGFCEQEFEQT
T1 sequence (P07686 122-556 partner): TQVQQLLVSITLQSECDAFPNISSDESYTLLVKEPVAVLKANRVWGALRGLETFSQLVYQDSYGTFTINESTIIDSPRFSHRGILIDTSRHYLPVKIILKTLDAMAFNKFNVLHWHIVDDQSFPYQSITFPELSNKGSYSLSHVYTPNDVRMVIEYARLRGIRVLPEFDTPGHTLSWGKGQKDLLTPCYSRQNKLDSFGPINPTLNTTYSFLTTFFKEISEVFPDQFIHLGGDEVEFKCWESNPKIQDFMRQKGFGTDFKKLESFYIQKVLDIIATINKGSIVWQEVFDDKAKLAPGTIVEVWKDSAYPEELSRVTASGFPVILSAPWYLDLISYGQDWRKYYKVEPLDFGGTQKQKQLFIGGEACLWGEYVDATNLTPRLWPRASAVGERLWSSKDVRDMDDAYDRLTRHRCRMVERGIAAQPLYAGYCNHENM
The experiment can be described thus: Inhibition of HexA in human fibroblast lysates at pH 7 or pH 5. The procedure: as §2

The target in experiment [4] is β-hexosaminidase from bovine kidney. Nature of the experiment: Commercial enzyme inhibition assay, β-hexosaminidase from bovine kidney. As to conditions: mean ± SD (n = 3); competitive. The procedure:
as §1

The mark [5] stands for this setting: pH 5, competitive, read-out: Ki HexA pH 5.
[6] abbreviates: pH 7, competitive, read-out: Ki HexA pH 7.

Read-outs that look alike come from different tables or passages of the source.

The term Ki denotes a dissociation constant, usually derived from enzyme kinetics or from competition with a known ligand. The IC50 is the concentration at which inhibition is half-maximal. Lower therefore signals greater potency. With `CC(=O)NC1CN2C(=Nc3ccccc3)SCC2C(O)C1O` (stereo not drawn) [Compound 8, 2-Acetamido-1,2-dideoxy-5-N,6-S-(N’-phenyliminomethylidene)-6-thiogalactonojirimycin], the inhibition constant Ki in experiment [1] is 44 ± 2 nM; in experiment [3] (setting [5]), 3900 nM; in experiment [3] (setting [6]) it was 410 nM; in experiment [4], 46 ± 2 nM. For the same molecule, in experiment [2], the concentration for half-maximal inhibition (IC50) stood at 330 nM.
On the same counts, the results for `CCCCN=C1SCC2C(O)C(O)C(NC(C)=O)CN12` (stereo not drawn) [Compound 5, 2-Acetamido-1,2-dideoxy-5-N,6-S-(N’-butyliminomethylidene)-6-thiogalactonojirimycin] are 55 ± 2 nM, 9800 nM, 990 nM, 24 ± 2 nM and 2600 nM.
On the same counts, the results for `CCCCCCCCN=C1SCC2C(O)C(O)C(NC(C)=O)CN12` (stereo not drawn) [Compound 6, 2-Acetamido-1,2-dideoxy-5-N,6-S-(N’-octyliminomethylidene)-6-thiogalactonojirimycin] are 26 ± 1 nM, 6400 nM, 580 nM, 15 ± 1 nM and 1300 nM.
Take `CC(=O)N[C@H]1CN(C(=S)NCc2ccccc2)[C@H](CO)[C@H](O)[C@@H]1O` [Compound 3, 2-Acetamido-1,2-dideoxy-5-N-(N’-benzylthiocarbamoyl)galactonojirimycin]: the Ki in experiment [1] was 16000 ± 500 nM; in experiment [3] (setting [5]), greater than 100000 nM; in experiment [3] (setting [6]) it was greater than 100000 nM; in experiment [4] it was 6300 ± 200 nM. In experiment [2], the IC50 is greater than 100000 nM.
On to `CC(=O)N[C@H]1CN(C(=S)Nc2ccccc2)[C@H](CO)[C@H](O)[C@@H]1O` [Compound 4, 2-Acetamido-1,2-dideoxy-5-N-(N’-phenylthiocarbamoyl)galactonojirimycin], for which the inhibitory constant (Ki) in experiment [1] amounted to 240 nM; in experiment [3] (setting [5]), 9400 nM; in experiment [3] (setting [6]) it was 910 nM; in experiment [4], 140 ± 10 nM. In experiment [2], this molecule displayed an IC50 of 10900 nM.
On the same counts, the results for `CC(=O)NC1CN2C(=NCc3ccccc3)SCC2C(O)C1O` (stereo not drawn) [Compound 7, 2-Acetamido-1,2-dideoxy-5-N,6-S-(N’-benzyliminomethylidene)-6-thiogalactonojirimycin] are 26 ± 1 nM, 6900 nM, 660 nM, 20 ± 1 nM and 2200 nM.
Regarding `CCCCNC(=S)N1C[C@H](NC(C)=O)[C@@H](O)[C@@H](O)[C@H]1CO` [Compound 1, 2-Acetamido-1,2-dideoxy-5-N-(N’-butylthiocarbamoyl)galactonojirimycin], the inhibition constant (Ki) in experiment [1] was 4800 ± 200 nM; in experiment [3] (setting [5]), 33700 nM; in experiment [3] (setting [6]), 4700 nM; in experiment [4], 3500 ± 200 nM. Moreover, the IC50 in experiment [2] is greater than 100000 nM.
On the same counts, the results for `CCCCCCCCNC(=S)N1C[C@H](NC(C)=O)[C@@H](O)[C@@H](O)[C@H]1CO` [Compound 2, 2-Acetamido-1,2-dideoxy-5-N-(N’-octylthiocarbamoyl)galactonojirimycin] are 3000 ± 100 nM, greater than 100000 nM, greater than 100000 nM, 2200 ± 100 nM and greater than 100000 nM.
